One assay concerns the target CK1δ (Homo sapiens (Human), UniProt P48730). As to the kind of experiment: CK1δ kinase assay (Caliper LABCHIP electrophoretic separation of fluoresceinated peptide substrate and product). Format: biochemical. To be noted: 200 pM CK1δ, 50 μM ATP, 1.5 μM peptide substrate, 22 hours at room temperature; read-out: CK1δ (IC50). A digest of the protocol: (§1)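 Compounds, taken from 10 mM DMSO stocks, are titrated at eleven concentrations. Kinase reactions proceed for 22 hours at room temperature and are quenched with EDTA. Substrate and product are resolved electrophoretically, and IC50 values are fitted by non-linear regression.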

For the next assay, the target named is CK1ε (Homo sapiens (Human), UniProt P49674). As to the kind of experiment: CK1ε kinase assay (Caliper LABCHIP electrophoretic separation of fluoresceinated peptide substrate and product). The class given is biochemical. To be noted: read-out: CK1ε (IC50). An outline of the steps:
as §1

Where [1] appears, read: 200 pM CK1ε, 50 μM ATP, 1.5 μM peptide substrate, 22 hours at room temperature.

pIC50: −log10 of the molar value. Like-named read-outs stand apart in the source and are kept apart here.

CK1δ, sequence (P48730 whole entry): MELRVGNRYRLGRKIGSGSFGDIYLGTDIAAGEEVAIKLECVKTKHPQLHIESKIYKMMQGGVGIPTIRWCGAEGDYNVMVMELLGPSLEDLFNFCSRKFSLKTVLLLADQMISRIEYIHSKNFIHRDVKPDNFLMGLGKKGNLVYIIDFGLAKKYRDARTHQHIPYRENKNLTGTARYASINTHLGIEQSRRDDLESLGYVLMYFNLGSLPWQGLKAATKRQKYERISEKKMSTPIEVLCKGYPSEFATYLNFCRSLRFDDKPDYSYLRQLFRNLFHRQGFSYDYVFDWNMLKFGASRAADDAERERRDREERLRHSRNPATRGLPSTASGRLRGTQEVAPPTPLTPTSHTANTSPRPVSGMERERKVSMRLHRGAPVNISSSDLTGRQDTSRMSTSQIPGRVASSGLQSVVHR
CK1ε, sequence (P49674 whole entry): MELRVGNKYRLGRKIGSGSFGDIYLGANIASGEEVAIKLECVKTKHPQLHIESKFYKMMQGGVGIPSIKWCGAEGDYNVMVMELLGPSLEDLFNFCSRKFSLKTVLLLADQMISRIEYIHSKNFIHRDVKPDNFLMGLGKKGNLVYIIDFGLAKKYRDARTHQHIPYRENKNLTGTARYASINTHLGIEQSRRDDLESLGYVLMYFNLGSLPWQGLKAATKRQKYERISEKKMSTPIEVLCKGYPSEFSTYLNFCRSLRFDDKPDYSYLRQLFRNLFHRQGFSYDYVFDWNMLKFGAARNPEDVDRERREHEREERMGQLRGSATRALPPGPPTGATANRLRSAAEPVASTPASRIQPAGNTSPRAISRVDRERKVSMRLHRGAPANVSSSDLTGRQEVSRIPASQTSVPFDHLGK

As to `N#Cc1ccc(NC(=O)N2CCn3nc(-c4ccc(F)c(Cl)c4)c(C(N)=O)c3C2)cc1Cl` [Compound 203, N^5-(3-Chloro-4-cyanophenyl)-2-(3-chloro-4-fluorophenyl)-6,7-dihydropyrazolo[1,5-a]pyrazine-3,5(4H)-dicarboxamide], the pIC50 on CK1δ and at CK1ε (setting [1]) was 8.00 to 11.00 each time.
As for `N#Cc1ccc(NC(=O)N2CCn3nc(-c4ccc(F)c(Cl)c4)c(C(N)=O)c3C2)cc1C(F)(F)F` [Compound 204, 2-(3-Chloro-4-fluorophenyl)-N^5-(4-cyano-3-(trifluoromethyl)phenyl)-6,7-dihydropyrazolo[1,5-a] pyrazine-3,5(4H)-dicarboxamide], the pIC50 on CK1δ and on CK1ε (setting [1]) was 8.00 to 11.00 each time.
Take `NC(=O)c1c(-c2ccc(Cl)c(Cl)c2)nn2c1CN(C(=O)Nc1cc(Cl)cc(Cl)c1)CC2` [Compound 206]: the pIC50 on CK1δ and on CK1ε (setting [1]) was 8.00 to 11.00 throughout.
For the compound `N#Cc1ccc(NC(=O)N2CCn3nc(-c4ccc(Cl)c(Cl)c4)c(C(N)=O)c3C2)cc1C(F)(F)F` [Compound 208, N^5-(4-Cyano-3-(trifluoromethyl)phenyl)-2-(3,4-dichlorophenyl)-6,7-dihydropyrazolo[1,5-a] pyrazine-3,5(4H)-dicarboxamide], the pIC50 at CK1δ and at CK1ε (setting [1]) was 8.00 to 11.00 throughout.
As for `NC(=O)c1c(-c2ccc(Cl)c(Cl)c2)nn2c1CN(C(=O)Nc1ccc(Cl)c(Cl)c1)CC2` [Compound 209], the pIC50 at CK1δ and on CK1ε (setting [1]) was 8.00 to 11.00 in each case.
Turning to `NC(=O)c1c(-c2ccc(Cl)c(Cl)c2)nn2c1CN(C(=O)Nc1cc(F)cc(C(F)(F)F)c1)CC2` [Compound 212, 2-(3,4-Dichlorophenyl)-N^5-(3-fluoro-5-(trifluoromethyl)phenyl)-6,7-dihydropyrazolo [1,5-a]pyrazine-3,5(4H)-dicarboxamide], the pIC50 at CK1δ and on CK1ε (setting [1]) was 8.00 to 11.00 in each case.
Take `NC(=O)c1c(-c2ccc(Cl)c(Cl)c2)nn2c1CN(C(=O)Nc1ccc(OC(F)(F)F)cc1)CC2` [Compound 213, 2-(3,4-Dichlorophenyl)-N^5-(4-(trifluoromethoxy)phenyl)-6,7-dihydropyrazolo[1,5-a] pyrazine-3,5(4H)-dicarboxamide]: the pIC50 at CK1δ and on CK1ε (setting [1]) was 8.00 to 11.00 each time.
Consider `Cc1cc(NC(=O)N2CCn3nc(-c4ccc(Cl)c(Cl)c4)c(C(N)=O)c3C2)ccc1C#N` [Compound 214, N^5-(4-Cyano-3-methylphenyl)-2-(3,4-dichlorophenyl)-6,7-dihydropyrazolo[1,5-a] pyrazine-3,5(4H)-dicarboxamide], for which the pIC50 at CK1δ and on CK1ε (setting [1]) was 8.00 to 11.00 throughout.
Take `N#Cc1ccc(NC(=O)N2CCn3nc(-c4cc(F)cc(Cl)c4)c(C(N)=O)c3C2)cc1F` [Compound 215, 2-(3-Chloro-5-fluorophenyl)-N^5-(4-cyano-3-fluorophenyl)-6,7-dihydropyrazolo[1,5-a]pyrazine-3,5(4H)-dicarboxamide]: the pIC50 at CK1δ and on CK1ε (setting [1]) was 8.00 to 11.00 each time.
Turning to `NC(=O)c1c(-c2cc(F)cc(Cl)c2)nn2c1CN(C(=O)Nc1cc(Cl)cc(Cl)c1)CC2` [Compound 216, 2-(3-Chloro-5-fluorophenyl)-N^5-(3,5-dichlorophenyl)-6,7-dihydropyrazolo[1,5-a] pyrazine-3,5(4H)-dicarboxamide], the pIC50 on CK1δ and at CK1ε (setting [1]) was 8.00 to 11.00 in each case.
Consider `NC(=O)c1c(-c2cc(F)cc(Cl)c2)nn2c1CN(C(=O)Nc1ccc(Cl)c(Cl)c1)CC2` [Compound 217, 2-(3-Chloro-5-fluorophenyl)-N^5-(3,4-dichlorophenyl)-6,7-dihydropyrazolo[1,5-a] pyrazine-3,5(4H)-dicarboxamide], for which the pIC50 at CK1δ and on CK1ε (setting [1]) was 8.00 to 11.00 throughout.
`N#Cc1ccc(NC(=O)N2CCn3nc(-c4cc(F)cc(Cl)c4)c(C(N)=O)c3C2)cc1C(F)(F)F` [Compound 218, 2-(3-Chloro-5-fluorophenyl)-N^5-(4-cyano-3-(trifluoromethyl)phenyl)-6,7-dihydropyrazolo[1,5-a] pyrazine-3,5(4H)-dicarboxamide]: the pIC50 – broadly, the IC50 on a negative log10 scale, so that one unit is a factor of ten – is 7.00 to 8.00 on CK1δ and 8.00 to 11.00 at CK1ε (setting [1]).
The like results for `Cc1cc(NC(=O)N2CCn3nc(-c4cc(F)cc(Cl)c4)c(C(N)=O)c3C2)ccc1C#N` [Compound 221, 2-(3-Chloro-5-fluorophenyl)-N^5-(4-cyano-3-methylphenyl)-6,7-dihydropyrazolo[1,5-a]pyrazine-3,5(4H)-dicarboxamide] were, in that order, 8.00 to 11.00 and 8.00 to 11.00.
The corresponding values for `N#Cc1ccc(NC(=O)N2CCn3nc(-c4cc(F)cc(Cl)c4)c(C(N)=O)c3C2)cc1Cl` [Compound 222, N^5-(3-Chloro-4-cyanophenyl)-2-(3-chloro-5-fluorophenyl)-6,7-dihydropyrazolo[1,5-a] pyrazine-3,5(4H)-dicarboxamide] are 8.00 to 11.00 and 8.00 to 11.00.
The corresponding values for `Cc1cc(F)cc(-c2nn3c(c2C(N)=O)CN(C(=O)Nc2ccc(C#N)c(F)c2)CC3)c1` [Compound 224, N^5-(4-Cyano-3-fluorophenyl)-2-(3-fluoro-5-methylphenyl)-6,7-dihydropyrazolo[1,5-a] pyrazine-3,5(4H)-dicarboxamide] are 8.00 to 11.00 and 8.00 to 11.00.
For `Cc1cc(F)cc(-c2nn3c(c2C(N)=O)CN(C(=O)Nc2ccc4ncsc4c2)CC3)c1` [Compound 225, N^5-(Benzo[d]thiazol-6-yl)-2-(3-fluoro-5-methylphenyl)-6,7-dihydropyrazolo[1,5-a] pyrazine-3,5(4H)-dicarboxamide], the pIC50 at CK1δ and at CK1ε (setting [1]) was 8.00 to 11.00 each time.
Turning to `Cc1cc(F)cc(-c2nn3c(c2C(N)=O)CN(C(=O)Nc2ccc4c(c2)OC(F)(F)O4)CC3)c1` [Compound 227, N^5-(2,2-Difluorobenzo[d] [1,3]dioxol-5-yl)-2-(3-fluoro-5-methylphenyl)-6,7-dihydropyrazolo[1,5-a] pyrazine-3,5(4H)-dicarboxamide], the pIC50 at CK1δ and at CK1ε (setting [1]) was 8.00 to 11.00 each time.
`Cc1cc(F)cc(-c2nn3c(c2C(N)=O)CN(C(=O)Nc2ccc(C#N)c(C(F)(F)F)c2)CC3)c1` [Compound 229, N^5-(4-Cyano-3-(trifluoromethyl)phenyl)-2-(3-fluoro-5-methylphenyl)-6,7-dihydropyrazolo[1,5-a] pyrazine-3,5(4H)-dicarboxamide]: the pIC50 on CK1δ and at CK1ε was 8.00 to 11.00 throughout.
For `Cc1cc(F)cc(-c2nn3c(c2C(N)=O)CN(C(=O)Nc2ccc(C#N)c(Cl)c2)CC3)c1` [Compound 230, N^5-(3-Chloro-4-cyanophenyl)-2-(3-fluoro-5-methylphenyl)-6,7-dihydropyrazolo[1,5-a] pyrazine-3,5(4H)-dicarboxamide], the pIC50 on CK1δ and on CK1ε (setting [1]) was 8.00 to 11.00 throughout.
In the case of `NC(=O)c1c(-c2ccc(F)c(F)c2)nn2c1CN(C(=O)Nc1ccc3c(c1)OC(F)(F)O3)CC2` [Compound 232, N^5-(2,2-Difluorobenzo [d][1,3]dioxol-5-yl)-2-(3,4-difluorophenyl)-6,7-dihydropyrazolo [1,5-a]pyrazine-3,5(4H)-dicarboxamide], the pIC50 on CK1δ and on CK1ε (setting [1]) was 8.00 to 11.00 throughout.
With `NC(=O)c1c(-c2ccc(F)c(F)c2)nn2c1CN(C(=O)Nc1ccc3c(c1)CS(=O)(=O)C3)CC2` [Compound 234, 2-(3,4-Difluorophenyl)-N^5-(2,2-dioxido-1,3-dihydrobenzo[c]thiophen-5-yl)-6,7-dihydropyrazolo [1,5-a]pyrazine-3,5(4H)-dicarboxamide], the pIC50 on CK1δ and on CK1ε (setting [1]) was 8.00 to 11.00 throughout.
`N#Cc1ccc(NC(=O)N2CCn3nc(-c4ccc(F)c(F)c4)c(C(N)=O)c3C2)cc1F` [Compound 236, N^5-(4-Cyano-3-fluorophenyl)-2-(3,4-difluorophenyl)-6,7-dihydropyrazolo[1,5-a] pyrazine-3,5(4H)-dicarboxamide]: the pIC50 at CK1δ and on CK1ε (setting [1]) was 8.00 to 11.00 in each case.
Regarding `N#Cc1ccc(NC(=O)N2CCn3nc(-c4ccc(F)c(F)c4)c(C(N)=O)c3C2)cc1C(F)(F)F` [Compound 237, N^5-(4-Cyano-3-(trifluoromethyl)phenyl)-2-(3,4-difluorophenyl)-6,7-dihydropyrazolo [1,5-a]pyrazine-3,5(4H)-dicarboxamide], the negative-log IC50 (pIC50) on CK1δ and on CK1ε (setting [1]) was 8.00 to 11.00 each time.
As for `Cc1cc(-c2nn3c(c2C(N)=O)CN(C(=O)Nc2ccc4ncsc4c2)CC3)ccc1F` [Compound 241, N^5-(Benzo[d]thiazol-6-yl)-2-(4-fluoro-3-methylphenyl)-6,7-dihydropyrazolo[1,5-a] pyrazine-3,5(4H)-dicarboxamide], the pIC50 at CK1δ and at CK1ε (setting [1]) was 8.00 to 11.00 throughout.
Take `Cc1cc(-c2nn3c(c2C(N)=O)CN(C(=O)Nc2ccc(C#N)c(F)c2)CC3)ccc1F` [Compound 243, N^5-(4-Cyano-3-fluorophenyl)-2-(4-fluoro-3-methylphenyl)-6,7-dihydropyrazolo[1,5-a] pyrazine-3,5(4H)-dicarboxamide]: the pIC50 at CK1δ and at CK1ε (setting [1]) was 8.00 to 11.00 in each case.
With `Cc1cc(-c2nn3c(c2C(N)=O)CN(C(=O)Nc2ccc(C#N)c(Cl)c2)CC3)ccc1F` [Compound 244, N^5-(3-Chloro-4-cyanophenyl)-2-(4-fluoro-3-methylphenyl)-6,7-dihydropyrazolo[1,5-a] pyrazine-3,5(4H)-dicarboxamide], the pIC50 on CK1δ and on CK1ε (setting [1]) was 8.00 to 11.00 throughout.
`Cc1cc(-c2nn3c(c2C(N)=O)CN(C(=O)Nc2ccc(C#N)c(C(F)(F)F)c2)CC3)ccc1F` [Compound 245, N^5-(4-Cyano-3-(trifluoromethyl)phenyl)-2-(4-fluoro-3-methylphenyl)-6,7-dihydropyrazolo[1,5-a] pyrazine-3,5(4H)-dicarboxamide]: the pIC50 at CK1δ and on CK1ε (setting [1]) was 8.00 to 11.00 throughout.

The values are drawn from patent publication US9598423B2 (BRISTOL-MYERS SQUIBB COMPANY, priority 2013, dated 2017).
